4 substances from patent publication US6989270B1, “Using polyamide nucleic acid oligomers to engender a biological response” (Mayo Foundation for Medical Education and Research, priority 1997, dated 2006) can be followed below.

For series [1], the system named is plasma membrane serotonin transporter. The series can be described thus: Hyperactivity (activity chamber) after tranylcypromine challenge. The series is classed as in vivo, rat. The conditions noted are these: 5 mg/kg i.p., then 15 mg/kg TCP 48 hours later.
Method: To test the ability of SERT-PNA oligomers to engender a biological response, e.g., a reduction of plasma membrane serotonin transporter expression, SERT-PNA oligomers were administered to rats with and without tranylcypromine (TCP), a MAO inhibitor.
A solution containing 5 mg/kg of SERT-PNA oligomers in saline was injected directly into the peritoneal cavity of male Sprague-Dawley rats (200-250 g). Each rat received a single injection on day zero and the volume injected was about 200 μl. Controls included rats receiving injections of saline only and injections of TCP only.
To monitor hyperactivity, an Opto-Varimex-Minor activity chamber (Columbus Instruments, Columbus, Ohio) was used. Briefly, this activity chamber records the number of times an animal disrupts an infrared beam while in a 42 cm by 42 cm chamber. Other signs of hyperactivity were noted by gross observation.
Series [2] relates to neurotensin receptor-1 (NTR1). The experiment in a line: NT-induced hypothermia (rectal body temperature) in PNA-treated rats. The series is classed as in vivo, rat. The conditions noted are these: for body temperature change in response to NT: NT 18 nmol 24 hours later. The protocol:
(§1) NTR1-PNA, MU1R-PNA, and ACSF treated as well as untreated rats were analyzed using the hot plate test for NT. One day after the last treatment, each rat was analyzed as follows. Fifteen minutes prior to testing, a pre-drug latency measurement was made by placing the rat on a hot plate maintained at a temperature of 52±0.15° C. and recording the time elapsed before the rat licked either of its hindpaws. In addition, the temperature of the rat was taken using a thermister probe inserted 3 cm in the rectum to determine the pre-drug body temperature (BT). After making these measurement, an appropriate dose of NT (18 nmol) at a volume of about 0.5 ul was administered into the PAG as described above. Thirty minutes after administering NT, the rat was again placed on a hot plate maintained at a temperature of 52±0.15° C. and the latency between the time the rat was placed on the surface and the time it licked either of its hindpaws was measured. […] Hot plate tests were scored as the percent of maximum possible effect (% MPE) and calculated using the following equation: % MPE=[(post-drug latency−pre-drug latency)/(cut-off−pre-drug latency)]×100; where the cut-off is 30 seconds. […] This average for untreated control rats was used to set the baseline MPE value to 100. Immediately after the 30 second hot plate test, BT was taken to measure NT-induced hypothermia using a thermister probe inserted 3 cm in the rectum. […] All test situations were compared to these baseline values derived from NT responsive untreated controls.
(§2) AS-NTR1-PNA, mismatch-AS-NTR1-PNA, and MU1R-PNA were injected intraperitoneally (10 mg/kg) independently, into separate groups of male Sprague-Dawley rats (Harlan, Prattville, Ala.). The sense-NTR1-PNA oligomer, however, was microinjected directly into the periaqueductal gray (PAG; 5 μg), the major area in the brain involved with perception of pain (nociception). […] Thirty minutes after receiving NT, animals were scored for anti-nociception (hot plate at 52° C.) and hypothermia (rectal probe). Again, anti-nociception scores were calculated as percent of maximum possible effect (% MPE) with the following equation: % MPE=[(post-drug latency time minus pre-drug latency time)/(cut-off time minus pre-drug latency time)]×100; where the cut-off time (i.e., the time when the animal was removed from the device) was 30 seconds for a hot plate test and 12 seconds for a tail flick test. Statistical analysis was done using the rank sum test.

Series [3] deals with MU1R mRNA. The series can be described thus: Quantitative RT-PCR of MU1R mRNA relative to GAPDH. The series is classed as in vivo. Particulars: treated intracranially, 5 μg. How it is done: (§3) Messenger RNA (mRNA) levels for NTR1, MU1R, and GAPDH were measured in control and PNA-treated animals. Briefly, total RNA was isolated from approximately 20 mg of tissue using the S.N.A.P. total RNA Isolation Kit (Invitrogen, Carlsbad, Calif.). Quantitative RT-PCR was performed on treated and control animals using GAPDH as an internal standard and PCR fragments of the human NTR and of a GAPDH deletion mutant as exogenous standards. First strand cDNA was synthesized from approximately 500 ng of total RNA using the cDNA Cycle Kit (Invitrogen, Carlsbad, Calif.). PCR was performed on a GeneAmp PCR System 9600 (Perkin Elmer, Norwalk, Conn.) using end-labeled primer and TAq DNA Polymerase (Gibco-BRL, Gaithersburg, Md.). Products were separated on a 5% acrylamide gel containing 7 M urea, and detected using a Storm860 Phosphoimager (Molecular Dynamics, Sunnyvale, Calif.). Data were analyzed using ImageQuant Software (Molecular Dynamics, Sunnyvale Calif.). To control for any diurnal mRNA level fluctuations that may occur, the PNA injection time was controlled such that the tissue harvest time was identical in each animal group.

The test system of series [4] is neurotensin receptor-1 (NTR1). The experiment in a line: Hot plate test of NT-mediated anti-nociception in PNA-treated rats. The series is classed as in vivo, rat. How it is done: Under an Institutional Animal Care and Use Committee approved protocol and under sterile conditions male Sprague-Dawley rats (180-200 g) were stereotaxically implanted with stainless steel guide cannulae (26 gauge) into the PAG under sodium pentobarbital anesthesia (50 mg/kg, i.p.) as described in detail elsewhere (Jensen T. S. and Yaksh T. L., Brain Res. 372:301-312 (1986) and Al-Rodhan N.R.F., Brain Res. 557:227-235 (1991)). The coordinates used for PAG cannulations are -5.6 mm posterior from bregma, 1.0 mm lateral from bregma, and 5.5 mm down from the dura. The guide cannula was pre-measured to be 5.5 mm (Plastics One, Roanoke, Va.) and the internal cannula was ordered to fit below the pedestal with a 2.0 mm projection. The guide cannula was then fixed to the skull using a stainless steel screw (⅛ inch) and cranioplastic cement. A stainless steel stilette was then placed in each guide to keep it patent and free of debris. Immediately after surgery, the animals were allowed to recover before returning them to an individual housing cage. All injections began 5-7 days after surgery.
NTR1-PNA oligomers were injected, using a Hamilton digital syringe, into the PAG through the internal cannula, which extended 2 mm below the guide tip. The internal cannula was connected with a length of polyethylene tubing (PE-20) filled with saline solution. A small air bubble was introduced into the tubing to separate the saline from a solution containing 1.3 nmol of NTR1-PNA oligomers in artificial cerebral-spinal fluid (ACSF). The volume of the solution containing the NTR1-PNA oligomers was about 1.0 μl. The bubble was used to confirm the movement of this solution through the polyethylene tubing.
NTR1-PNA oligomers were injected into the PAG of each rat three times, on days -4, -2, and 0. Controls included rats receiving no injections, rats receiving injections of ACSF only, and rats receiving PNA oligomers having sequence specificity for an unrelated polypeptide, the mu-1 morphine receptor (MU1R). The sequence of MU1R-PNA is 5′-[…]-3′ (SEQ ID NO: 2).
The injection of NT in the PAG of rats produces a potent anti-nociceptive response as well as hypothermia. These responses are mediated by specific NT receptors and are not inhibited by naloxone. A very sensitive and reliable hot plate test was used to measure the anti-nociceptive effects of NT (Al-Rodhan N.R.F., Brain Res. 557:227-235 (1991)).
as §1, with “controls. […]” for “controls.”
Background: Thermal pain tests record how soon the animal reacts.

Series [5] has as its system NTR1 mRNA. The experiment in a line: Quantitative RT-PCR of NTR1 mRNA relative to GAPDH. The series is classed as in vivo. Particulars: treated intracranially, 5 μg; at 8 hours. How it is done:
as §3

Series [6] relates to mu-1 receptor (MU1R). The series can be described thus: Tail flick test of MOR-mediated anti-nociception in PNA-treated rats. The series is classed as in vivo, rat. The protocol:
The injection of MOR into rats produces a potent anti-nociceptive response. This response is mediated by specific MOR receptors and is inhibited by naloxone. A very sensitive and reliable tail flick test was devised and used to measure the anti-nociceptive effects of MOR (D'Amour F. E. and Smith D. L, J. Pharm. Exp. Therap. 72:74-79 (1941)).
MU1R-PNA, NTR1-PNA, and ACSF treated as well as untreated rats were analyzed using the MOR-specific tail flick test. One day after the last treatment, each rat was analyzed as follows. Thirty minutes prior to testing, a pre-drug latency measurement was made by placing the tail of the restrained rat in oil maintained at a temperature of 60° C. and recording the time elapsed before the rat flicked its tail. After making this measurement, an appropriate dose of MOR (5 mg/kg of body weight) at a volume of about 200 μl was injected i.p. Thirty minutes after administering MOR, the restrained rat's tail was again placed in the oil maintained at 60° C. and the latency between the time the tail was placed in the oil and the time the rat flicked its tail was measured. […] Tail flick tests were scored as the percent of MPE and calculated using the following equation: % MPE=[(post-drug latency−pre-drug latency)/(cut-off−pre-drug latency)]×100; where the cut-off is 12 seconds. […] This average for untreated control rats was used to set the baseline A MPE value to 100. All test situations were compared to this baseline response value derived from MOR responsive untreated controls. To test the significance, data were analyzed using the Student's t-test with p<0.05 being considered significant.
as §2

Setting [7] is: 10 mg/kg intraperitoneally, NT 18 nmol into PAG 24 hours later.
Where [8] appears, read: PNA injected into PAG on days -4, -2, 0, NT 18 nmol into PAG.

For the substance “SERT-PNA: 12-mer antisense PNA oligomer to rat plasma membrane serotonin transporter, 5′-GCCAGATGTTGC-3′ (SEQ ID NO: 3) (all peptide nucleic acid (PNA); further chemistry not fully specified)”, in series [1], the “hyperactivity after TCP” value is “extreme hyperactivity” and the “time to extreme hyperactivity after TCP treatment” value is at most 10 min.

Consider “sense-NTR1-PNA: sense PNA oligomer for NTR1, complementary to AS-NTR1-PNA, 5′-GTTTGAGCAATG-3′ (SEQ ID NO:13) (all peptide nucleic acid (PNA); sense control PNA, further chemistry not fully specified)”, for which the “body temperature change in response to NT” value was −0.45±0.15 °C in series [2] (10 mg/kg intraperitoneally) and −0.5 °C in series [2] (PNA into PAG, 5 μg). Further, the “change in MU1R/GAPDH ratio of mRNA” value in series [3] is given as “no change”. The “anti-nociception score (hot plate) after NT” value (from here on “anti-nociception score”) in series [4] (setting [7]) was 5.4±5.4 % MPE; in series [4] (PNA microinjected into PAG (printed 5% g), NT 18 nmol 24 hours later) it was 14 % MPE. Moreover, the “reduction in the NTR1/GAPDH ratio of mRNA” value in series [5] was determined as 50%.

As to “MU1R-PNA: 14-mer antisense PNA oligomer to mu-1 receptor 5′ non-coding region, 5′-CAGCCTCTTCCTCT-3′ (SEQ ID NO: 2) (all peptide nucleic acid (PNA); further chemistry not fully specified)”, the “BT (hypothermia) response to NT challenge as percent of baseline response” value in series [2] (setting [8]) is “indistinguishable from the baseline responses”. In series [4] (setting [7]), the “anti-nociception score” value came out at 82 % MPE. Also, the “MPE (hot plate) response to NT challenge as percent of baseline response” value in series [4] (setting [8]) is “indistinguishable from the baseline responses”. Moreover, in series [6] (PNA injected into PAG on days -4, -2, 0), the “time until which MOR-mediated anti-nociception remained significantly reduced” value was “day twelve”. The “responsiveness to MOR challenge (tail flick)” value in series [6] (one day after single i.p. injection of 3 mg/kg) is listed as “unable to respond to MOR challenge”.

Turning to “mismatch-AS-NTR1-PNA: PNA oligomer like AS-NTR1-PNA with a mismatch at every third base pair, 5′-TATGGCACAGAC-3′ (SEQ ID NO:12) (all peptide nucleic acid (PNA); further chemistry not fully specified)”, in series [2] (10 mg/kg intraperitoneally), the “body temperature change in response to NT” value was −1.3 °C. Besides, the “anti-nociception score” value in series [4] (setting [7]) is 60 % MPE.
